# Measurements: PubChem BioAssay (NCI)
#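 Where inhibition never reached the appropriate level, the endpoint shown equals the highest concentration tested. Otherwise, values were interpolated linearly from a five-concentration, 48-hour dose response in 96-well plates. GI50 is the concentration that inhibits growth by half. TGI is the concentration that stops growth completely.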
# Columns and labels:
# Experiment in all cases: NCI tumour cell line growth inhibition, 48 h
# 786-0 renal = system: 786-0 renal
# A498 renal = system: A498 renal
# A549 NSCLC = system: A549 NSCLC
# ACHN renal = system: ACHN renal
# BT-549 breast = system: BT-549 breast
# CAKI-1 renal = system: CAKI-1 renal
# CCRF-CEM leukemia = system: CCRF-CEM leukemia
# COLO 205 colon = system: COLO 205 colon
# DU-145 prostate = system: DU-145 prostate
# EKVX NSCLC = system: EKVX NSCLC
# HCC-2998 colon = system: HCC-2998 colon
# HCT-116 colon = system: HCT-116 colon
# HCT-15 colon = system: HCT-15 colon
# HL-60(TB) leukemia = system: HL-60(TB) leukemia
# HOP-62 NSCLC = system: HOP-62 NSCLC
# HOP-92 NSCLC = system: HOP-92 NSCLC
# HS 578T breast = system: HS 578T breast
# HT29 colon = system: HT29 colon
# IGROV1 ovarian = system: IGROV1 ovarian
# K-562 leukemia = system: K-562 leukemia
# KM12 colon = system: KM12 colon
# LOX IMVI melanoma = system: LOX IMVI melanoma
# M14 melanoma = system: M14 melanoma
# MALME-3M melanoma = system: MALME-3M melanoma
# MCF7 breast = system: MCF7 breast
# MDA-MB-231 breast = system: MDA-MB-231 breast
# MDA-MB-435 = system: MDA-MB-435
# MDA-MB-468 breast = system: MDA-MB-468 breast
# MOLT-4 leukemia = system: MOLT-4 leukemia
# NCI-H226 lung = system: NCI-H226 lung
# NCI-H23 lung = system: NCI-H23 lung
# NCI-H460 lung = system: NCI-H460 lung
# NCI-H522 lung = system: NCI-H522 lung
# NCI/ADR-RES ovarian = system: NCI/ADR-RES ovarian
# OVCAR-3 ovarian = system: OVCAR-3 ovarian
# OVCAR-4 ovarian = system: OVCAR-4 ovarian
# OVCAR-5 ovarian = system: OVCAR-5 ovarian
# OVCAR-8 ovarian = system: OVCAR-8 ovarian
# PC-3 prostate = system: PC-3 prostate
# RPMI-8226 leukemia = system: RPMI-8226 leukemia
# RXF 393 renal = system: RXF 393 renal
# SF-268 CNS = system: SF-268 CNS
# SF-295 CNS = system: SF-295 CNS
# SF-539 CNS = system: SF-539 CNS
# SK-MEL-2 melanoma = system: SK-MEL-2 melanoma
# SK-MEL-28 melanoma = system: SK-MEL-28 melanoma
# SK-MEL-5 melanoma = system: SK-MEL-5 melanoma
# SK-OV-3 ovarian = system: SK-OV-3 ovarian
# SN12C renal = system: SN12C renal
# SNB-19 CNS = system: SNB-19 CNS
# SNB-75 CNS = system: SNB-75 CNS
# SR leukemia = system: SR leukemia
# SW-620 colon = system: SW-620 colon
# T-47D breast = system: T-47D breast
# TK-10 renal = system: TK-10 renal
# U251 CNS = system: U251 CNS
# UACC-257 melanoma = system: UACC-257 melanoma
# UACC-62 melanoma = system: UACC-62 melanoma
# UO-31 renal = system: UO-31 renal
smiles,measurement,setting,value
CC[C@]12C=CCN3CC[C@]4(C(=C(C(=O)OC)C1)Nc1cc(OC)c([C@@H]5[C@H]6O[C@H]6[C@@]6(CC)CC(C(=O)OC)=C7Nc8cc(O)ccc8[C@@]78CCN5[C@@H]68)cc14)[C@@H]32,GI50,786-0 renal,5.71 µM
same,TGI,786-0 renal,49.4 µM
same,GI50,A498 renal,13.1 µM
same,TGI,A498 renal,40 µM
same,GI50,A549 NSCLC,4.56 µM
same,TGI,A549 NSCLC,> 56.5 µM
same,GI50,ACHN renal,6.67 µM
same,TGI,ACHN renal,20.3 µM
same,GI50,BT-549 breast,6.27 µM
same,TGI,BT-549 breast,18.9 µM
same,GI50,CAKI-1 renal,4 µM
same,TGI,CAKI-1 renal,50.1 µM
same,GI50,CCRF-CEM leukemia,2.19 µM
same,TGI,CCRF-CEM leukemia,> 56.5 µM
same,GI50,COLO 205 colon,10.4 µM
same,TGI,COLO 205 colon,24 µM
same,GI50,DU-145 prostate,12.3 µM
same,TGI,DU-145 prostate,50 µM
same,GI50,EKVX NSCLC,3.7 µM
same,TGI,EKVX NSCLC,31.7 µM
same,GI50,HCC-2998 colon,3.32 µM
same,TGI,HCC-2998 colon,10.9 µM
same,GI50,HCT-116 colon,2.17 µM
same,TGI,HCT-116 colon,12.6 µM
same,GI50,HCT-15 colon,2.91 µM
same,TGI,HCT-15 colon,11.4 µM
same,GI50,HL-60(TB) leukemia,1.78 µM
same,TGI,HL-60(TB) leukemia,8.34 µM
same,GI50,HOP-62 NSCLC,12.9 µM
same,TGI,HOP-62 NSCLC,27.5 µM
same,GI50,HOP-92 NSCLC,5.99 µM
same,TGI,HOP-92 NSCLC,14.3 µM
same,GI50,HS 578T breast,11.7 µM
same,TGI,HS 578T breast,> 56.5 µM
same,GI50,HT29 colon,6.12 µM
same,TGI,HT29 colon,18.9 µM
same,GI50,IGROV1 ovarian,8.95 µM
same,TGI,IGROV1 ovarian,25 µM
same,GI50,K-562 leukemia,1.91 µM
same,TGI,K-562 leukemia,12.4 µM
same,GI50,KM12 colon,3.27 µM
same,TGI,KM12 colon,14.9 µM
same,GI50,LOX IMVI melanoma,3.11 µM
same,TGI,LOX IMVI melanoma,10.5 µM
same,GI50,M14 melanoma,2.91 µM
same,TGI,M14 melanoma,16.3 µM
same,GI50,MALME-3M melanoma,5.97 µM
same,TGI,MALME-3M melanoma,12.8 µM
same,GI50,MCF7 breast,1.73 µM
same,TGI,MCF7 breast,11.6 µM
same,GI50,MDA-MB-231 breast,6.8 µM
same,TGI,MDA-MB-231 breast,13.9 µM
same,GI50,MDA-MB-435,3.71 µM
same,TGI,MDA-MB-435,14.2 µM
same,GI50,MDA-MB-468 breast,1.11 µM
same,TGI,MDA-MB-468 breast,7.28 µM
same,GI50,MOLT-4 leukemia,1.34 µM
same,TGI,MOLT-4 leukemia,6.82 µM
same,GI50,NCI-H226 lung,5.95 µM
same,TGI,NCI-H226 lung,15 µM
same,GI50,NCI-H23 lung,6.13 µM
same,TGI,NCI-H23 lung,18.8 µM
same,GI50,NCI-H460 lung,2.87 µM
same,TGI,NCI-H460 lung,10.9 µM
same,GI50,NCI-H522 lung,2.41 µM
same,TGI,NCI-H522 lung,11.6 µM
same,GI50,NCI/ADR-RES ovarian,7.86 µM
same,TGI,NCI/ADR-RES ovarian,26.8 µM
same,GI50,OVCAR-3 ovarian,3.92 µM
same,TGI,OVCAR-3 ovarian,12.1 µM
same,GI50,OVCAR-4 ovarian,5.68 µM
same,TGI,OVCAR-4 ovarian,> 56.5 µM
same,GI50,OVCAR-5 ovarian,10.5 µM
same,TGI,OVCAR-5 ovarian,27.5 µM
same,GI50,OVCAR-8 ovarian,12.4 µM
same,TGI,OVCAR-8 ovarian,> 56.5 µM
same,GI50,PC-3 prostate,1.99 µM
same,TGI,PC-3 prostate,16.7 µM
same,GI50,RPMI-8226 leukemia,1.53 µM
same,TGI,RPMI-8226 leukemia,> 56.5 µM
same,GI50,RXF 393 renal,2.6 µM
same,TGI,RXF 393 renal,12.5 µM
same,GI50,SF-268 CNS,5.6 µM
same,TGI,SF-268 CNS,43.5 µM
same,GI50,SF-295 CNS,5 µM
same,TGI,SF-295 CNS,15.3 µM
same,GI50,SF-539 CNS,10.8 µM
same,TGI,SF-539 CNS,27.4 µM
same,GI50,SK-MEL-2 melanoma,8.75 µM
same,TGI,SK-MEL-2 melanoma,19.8 µM
same,GI50,SK-MEL-28 melanoma,7.57 µM
same,TGI,SK-MEL-28 melanoma,24.5 µM
same,GI50,SK-MEL-5 melanoma,3.66 µM
same,TGI,SK-MEL-5 melanoma,11.4 µM
same,GI50,SK-OV-3 ovarian,17.7 µM
same,TGI,SK-OV-3 ovarian,> 56.5 µM
same,GI50,SN12C renal,6.01 µM
same,TGI,SN12C renal,15.3 µM
same,GI50,SNB-19 CNS,14.6 µM
same,TGI,SNB-19 CNS,> 56.5 µM
same,GI50,SNB-75 CNS,2.95 µM
same,TGI,SNB-75 CNS,> 56.5 µM
same,GI50,SR leukemia,2.18 µM
same,TGI,SR leukemia,21.7 µM
same,GI50,SW-620 colon,5.67 µM
same,TGI,SW-620 colon,14.6 µM
same,GI50,T-47D breast,1.9 µM
same,TGI,T-47D breast,23.8 µM
same,GI50,TK-10 renal,21.2 µM
same,TGI,TK-10 renal,> 56.5 µM
same,GI50,U251 CNS,4.33 µM
same,TGI,U251 CNS,14.6 µM
same,GI50,UACC-257 melanoma,4.3 µM
same,TGI,UACC-257 melanoma,15.5 µM
same,GI50,UACC-62 melanoma,3.27 µM
same,TGI,UACC-62 melanoma,11.6 µM
same,GI50,UO-31 renal,4.31 µM
same,TGI,UO-31 renal,13.8 µM
